Measured values taken from patent US10189796B2, “[4-(1,3,3-trimethyl-2-oxo-3,4-dihydro-1H-quinoxalin-7-yl)phenoxy]ethyloxy compound or salt thereof” (SANTEN PHARMACEUTICAL CO., LTD., priority 2015, dated 2019).

Key:
[1] = test system: exorbital lacrimal gland-removed rat dry eye model; test: Dry eye syndrome (dry eye) model evaluation test; assay type: in vivo; conditions: eye drop 5 μL four times a day
Procedure: In order to evaluate the treatment effect of the present compounds on corneal disorder accompanied by dry eye syndrome (dry eye), a treatment effect on corneal disorder in an exorbital lacrimal gland-removed rat dry eye model was investigated. This model was prepared in accordance with the method of Fujihara, et al. (Invest. Ophthalmol. Vis. Sci., 42(1): 96-100 (2001)). Incidentally, this effect was scored according to the method of Murakami et al. (New Ophthalmologist 21(1): 87-90 (2004)), the extent of corneal disorder was scored and the improvement ratio was calculated from the corneal disorder score of the base agent administered group (control group), the corneal disorder score of the test compound administered group and the corneal disorder score of the normal rat.
A base agent containing a general additive(s) was added to the test compound to prepare test compound suspensions with 0.03% (W/V) and 0.1% (W/V). In addition, a base agent was added to the commercially available drug A to prepare a diluted solution with 0.05% (V/V).
• 1) By using male SD rats, somnopentyl was administered to the rats to apply them general anesthesia, exorbital lacrimal glands were removed, and corneal disorder was induced over 8 weeks thereafter. • 2) The test compound suspension was eye-dropped (instillation dose: 5 μL/time) to both eyes four times a day for 14 days. Incidentally, the base agent was similarly eye-dropped to the administered group (control group), and the commercially available drug A and its diluted solution were similarly eye-dropped. • 3) Fourteen days after the start of eye dropping, the cornea was stained with fluorescein. For each of the upper part, the middle part and the lower part of the cornea, scores of the degree of staining with fluorescein were determined according to the following criteria, and an average value of the total of the scores was calculated. Incidentally, 0.5 was set as an intermediate value between each score of 0, 1, 2 and 3. <<Judgement Standard>>
1: Dyeing is sparse, and the dyed portions of each dot are separated
2: Dyeing is a middle degree and part of the dotted dyed portions is adjacent
3: Dyeing is dense, and the dyed portions of each point are almost adjacent
(Calculation Formula) Corneal disorder improvement ratio (%) of the test compound administered group=(Ao−Ax)/(Ao−An)×100 • Ao: Average value of corneal disorder score of the base agent administered group (control group) • Ax: Average value of corneal disorder score of the test compound administered group • An: Average value of corneal disorder score of normal rat (Test Result and Consideration)

[2] = test system: paracentesis induced intraocular inflammation model of rabbits; test: Anterior eye inflammation model evaluation test; assay type: in vivo, rabbit; conditions: 3% (W/V) suspension, eye dropped 50 μL four times; 120 minutes after primary puncture
Procedure: In order to evaluate an anti-inflammatory action of the present compound on anterior eye inflammation, an inhibitory effect on a number of infiltrated cells into aqueous humor in a paracentesis induced intraocular inflammation model of rabbits was investigated. Incidentally, this effect was evaluated by calculating an inhibitory ratio from a number of infiltrated cells into aqueous humor in the base agent administered group (control group) and a number of infiltrated cells into aqueous humor in the test compound administered group.
A base agent containing a general additive(s) was added to the test compound to prepare a test compound suspension with 3% (W/V).
• 1) Male JW rabbits underwent local anesthesia with 0.4% oxybuprocaine hydrochloride (trade name: Benoxil ophthalmic solution 0.4%), and about 0.1 mL of anterior aqueous humor was collected by using a syringe for tuberculin so as not to touch the iris to carry out primary puncture, whereby an inflammatory response was induced. • 2) Thirty minutes before the primary puncture, heparin was intravenously administered so as to be about 50 unit/kg. • 3) The test compound suspension was eye dropped (instillation dose: 50 μL/time) to both eyes in total four times, 210 minutes before, 60 minutes before, 15 minutes after, and 90 minutes after the primary puncture. […]

COc1cc(OC[C@H](C)OC(=O)CN(C)C)ccc1-c1ccc2c(c1COc1cc(F)ccc1C)N(C)C(=O)C(C)(C)N2 [Compound 11-1, (S)-7-[4-[2-(N,N-dimethylaminoacetoxy)propyl]oxy-2-methoxyphenyl]-8-(5-fluoro-2-methylphenoxymethyl)-1,3,3-trimethyl-3,4-dihydro-1H-quinoxalin-2-one] was tested. Which “Corneal disorder improvement ratio (%) After 14 days eye dropping” value ([1]; 0.03%) did it give?
Its value is 33%.

What about the “Corneal disorder improvement ratio (%) After 14 days eye dropping” value ([1]; 0.1%) of the same compound?
The value was 64%.

What about the “inhibitory ratio (%) of the number of infiltrated cells into aqueous humor” value [2] of the same compound?
Its value is 37%.
